Values quoted from earlier work, collected in US11766458B2, “Method and a dietary composition on regulation, treatment, and prevention of obesity” (priority 2021, dated 2023).

How the values were obtained:
[1] = Nutrition & Diabetes volume 11, Article number: 3, 2021

| SMILES | Gastric emptying [1] | Energy intake (food diary) (after L-arginine treatment) | Release of plasma PYY (healthy people, oral 17.1 mmol, after unlimited meals, p<0.001) | Release of plasma GLP-1 (healthy people, oral 17.1 mmol, after unlimited meals, p<0.05) | GLP-1 secretion (DIO C57BL/6 mice; oral 1 g/kg 15 minutes before OGTT) | Glucose resistance (DIO C57BL/6 mice; oral 1 g/kg 15 minutes before OGTT (2 g glucose/kg bw)) |
| --- | --- | --- | --- | --- | --- | --- |
| N[C@@H](Cc1c[nH]c2ccccc12)C(=O)O [tryptophan] | delays the gastric emptying |  |  |  |  |  |
| N=C(N)NCCC[C@H](N)C(=O)O [L-arginine] |  | less energy intake | stimulated | stimulated | induces GLP-1 secretion | improves glucose resistance |
